Experimental data: patent US8748602B2, “Polymorphs of erlotinib hydrochloride and method of preparation” (Natco Pharma Limited, priority 2007, dated 2014)
Counter-ions that a name gives are not always drawn.

Columns and labels:
[1] = compared with polymorphic Form A; cited from earlier work
[2] = solid state stability of the polymorphic forms; assay type: physicochemical

SMILES	thermodynamic stability [1]	stability in the solid state ([2]; higher temperatures of the order of 60°-120° C.)	stability in the solid state ([2]; room temperature (30°-35° C.))
C#Cc1cccc(Nc2ncnc3cc(OCCOC)c(OCCOC)cc23)c1 [Form-B, Erlotinib HCl]	thermodynamically more stable		
C#Cc1cccc(Nc2ncnc3cc(OCCOC)c(OCCOC)cc23)c1.Cl [Form-M, Erlotinib Hydrochloride]		very stable	very stable
